Laboratory results published in patent publication US20230073755A1, “USE OF IGF1 IN COMBINATION WITH IGFEC24 IN PREPARATION OF MEDICINE FOR PROMOTING TISSUE REPAIR AND REGENERATION” (Chongqing University, priority 2020, published 2023).

Columns and labels:
cardiomyocytes = assay: Cardiomyocyte proliferation effect assay (Edu), 13-month-old C57 mice; format: in vivo; details: aged (13-month-old) female mice; IGF1-24 100 μg/kg for 7 days; PBS group 0.5%; FIG. 3
Experimental: Female 13-month-old mice were divided into 2 groups, PBS group and IGF1-24 group, with 6 mice in each group, and the mice in each group were distinguished by ear tags for subsequent protein injection according to the different body weights of the mice. The mice in each group were injected with PBS and IGF1-24 for 7 consecutive days, and the recombinant protein IGF1-24 was injected at 100 μg/kg. After seven days of protein injection, Edu solution at a concentration of […] was injected intraperitoneally for seven consecutive days, so that the final total dose of each mouse reached 50 mg/kg. […]

skeletal muscle cells = assay: Skeletal muscle cell proliferation effect (Edu / Desmin immunofluorescence of gastrocnemius muscle), SD rats; format: in vivo; details: gastrocnemius muscle sections, FIG. 8
Experimental: In certain embodiments, adult female SD rats were divided into five groups: PBS group, IGF1 group, IGF1Ec group, IGF1-24 group, and IGF1+IGF1Ec24 peptide group, with three rats in each group. The rats in each group were distinguished by ear clipping for subsequent protein injection according to the different body weights of the rats.
The rats in each group were injected with PBS, IGF1, IGF1Ec24 peptide, IGF1Ec and IGF1-24 for 7 consecutive days. Recombinant protein IGF1-24 was injected at 100 μg/kg, and the injection of the remaining proteins in each group was converted according to the molar amount of IGF1-24 injection as follows: 90 μg/kg for IGF1, 8.9 μg/kg for IGF1Ec24 peptide, 104 μg/kg for IGF1Ec.
After seven days of protein injection, the intraperitoneal injection of Edu solution at a concentration of 2.5 mg/kg was performed for seven days, so that the final total dose of each rat reached 50 mg/kg. […]

“IGF1-24: 97 amino acids: amino-terminal 70 identical to IGF1, carboxyl-terminal 24 identical to IGFEc24 peptide, joined by three Gly linkers (SEQ ID NO: 4)” was tested, and the “number of Edu-positive cardiomyocytes” value (cardiomyocytes) was 1.5% and the “number of Edu-positive skeletal muscle cells per square millimeter” value (skeletal muscle cells) was 28 per square millimeter.
